Source: ChEMBL document CHEMBL4346710, “Discovery of 7H-pyrrolo[2,3-d]pyrimidine derivatives as selective covalent irreversible inhibitors of interleukin-2-inducible T-cell kinase (Itk)” (Eur J Med Chem, 2019)
Activity calls are given as the source filed them. No cut-off for these calls is given here.

How the values were obtained:
H9 = assay: Growth inhibition of human H9 cells incubated for 72 hrs by CellTiter-Glo luminescent cell viability assay; format: functional; conditions: H9, 72 h
CCRF-CEM [1] = assay: Induction of apoptosis in human CCRF-CEM cells assessed as downregulation of caspase3 at 1 to 5 uM incubated for 24 hrs by Western blot analysis; format: functional, cell-based
[2] = target: Receptor-type tyrosine-protein kinase FLT3 (Homo sapiens) (UniProt P36888); assay: Inhibition of recombinant human His-tagged FLT3 cytoplasmic domain (564 to 958 residues) expressed in baculovirus expression system assessed as enzyme residual activity at 0.4 uM using fluorophore-labeled tyrosine-2 peptide as substrate incubated for 60 mins by Z'-LYTE assay relative to control
[3] = target: Mitogen-activated protein kinase 8 (Homo sapiens) (UniProt P45983); assay: Inhibition of tracer 236 binding to recombinant full length human His-tagged MAPK8 expressed in baculovirus expression system assessed as enzyme residual activity at 0.4 uM incubated for 60 mins by Lanthascreen assay relative to control
CCRF-CEM [4] = assay: Induction of apoptosis in human CCRF-CEM cells assessed as upregulation of cleaved PARP at 1 to 5 uM incubated for 24 hrs by Western blot analysis; format: functional, cell-based
Jurkat [5] = assay: Induction of apoptosis in human Jurkat cells assessed as upregulation of cleaved PARP at 1 to 20 uM incubated for 24 hrs by Western blot analysis; format: functional, cell-based
[6] = target: Insulin-like growth factor 1 receptor (Homo sapiens) (UniProt P08069); assay: Inhibition of recombinant human His-tagged IGF1R cytoplasmic domain ([…]) expressed in baculovirus expression system assessed as enzyme residual activity at 0.4 uM using fluorophore-labeled tyrosine-1 peptide as substrate incubated for 60 mins by Z'-LYTE assay relative to control
[7] = target: T1, Tyrosine-protein kinase ITK/TSK (Homo sapiens) (UniProt Q08881); assay: Inhibition of ITK in human Jurkat cells assessed as reduction in anti-CD3/CD28-stimulated PLCgamma1 phosphorylation at 0.1 to 10000 nM preincubated for 2 hrs followed by anti-CD3/CD28 beads addition and measured after 30 min by Western blot analysis; format: cell-based
T1 sequence (whole entry): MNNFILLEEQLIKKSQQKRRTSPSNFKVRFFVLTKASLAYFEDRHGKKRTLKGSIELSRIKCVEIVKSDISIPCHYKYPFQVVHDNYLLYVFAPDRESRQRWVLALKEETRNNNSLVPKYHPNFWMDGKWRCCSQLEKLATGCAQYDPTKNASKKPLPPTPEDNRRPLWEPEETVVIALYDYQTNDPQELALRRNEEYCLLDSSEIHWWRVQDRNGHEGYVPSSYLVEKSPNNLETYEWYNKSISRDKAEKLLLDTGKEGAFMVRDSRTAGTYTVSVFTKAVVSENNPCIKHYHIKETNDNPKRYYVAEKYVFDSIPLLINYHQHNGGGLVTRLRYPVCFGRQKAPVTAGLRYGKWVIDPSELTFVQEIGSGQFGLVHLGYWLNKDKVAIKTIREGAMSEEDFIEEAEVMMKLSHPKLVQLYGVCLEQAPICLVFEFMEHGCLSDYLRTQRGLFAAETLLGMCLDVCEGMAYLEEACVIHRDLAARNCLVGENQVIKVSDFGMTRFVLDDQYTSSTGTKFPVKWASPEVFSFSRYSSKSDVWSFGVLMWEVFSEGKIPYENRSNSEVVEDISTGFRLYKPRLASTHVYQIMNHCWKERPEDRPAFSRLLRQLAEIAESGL

MOLT-4 [8] = assay: Induction of apoptosis in human MOLT4 cells assessed as upregulation of cleaved PARP at 1 to 20 uM incubated for 24 hrs by Western blot analysis; format: functional, cell-based
[9] = target: T1, Tyrosine-protein kinase ITK/TSK (Homo sapiens); assay: Inhibition of recombinant full-length human GST-tagged ITK cytoplasmic domain expressed in baculovirus expression system assessed as enzyme residual activity at 0.4 uM using fluorophore-labeled tyrosine-1 peptide as substrate incubated for 60 mins by Z'-LYTE assay relative to control
[10] = target: Glycogen synthase kinase-3 alpha (Homo sapiens) (UniProt P49840); assay: Inhibition of recombinant full length human His-tagged GSK3alpha expressed in baculovirus expression system assessed as enzyme residual activity at 0.4 uM using fluorophore-labeled serine/threonine-9 peptide as substrate incubated for 60 mins by Z'-LYTE assay relative to control
[11] = target: Epidermal growth factor receptor (Homo sapiens, UniProt P00533); assay: Inhibition of human recombinant GST-tagged EGFR cytoplasmic domain (668 to 1210 residues) expressed in baculovirus expression system assessed as enzyme residual activity at 0.4 uM using fluorophore-labeled tyrosine-4 peptide as substrate by Z'-Lyte assay relative to control
[12] = target: Tyrosine-protein kinase Fyn (Homo sapiens) (UniProt P06241); assay: Inhibition of recombinant full length C-terminal His-tagged human FYN cytoplasmic domain expressed in baculovirus expression system assessed as enzyme residual activity at 0.4 uM using fluorophore-labeled tyrosine-2 peptide as substrate by Z'-Lyte assay relative to control
[13] = target: Tyrosine-protein kinase Blk (Homo sapiens, UniProt P51451); assay: Inhibition of recombinant full-length human His-tagged BLK cytoplasmic domain expressed in baculovirus expression system assessed as enzyme residual activity at 0.4 uM using fluorophore-labeled tyrosine-1 peptide as substrate incubated for 60 mins by Z'-LYTE assay relative to control
MOLT-4 [14] = assay: Induction of apoptosis in human MOLT4 cells assessed as downregulation of caspase3 at 1 to 20 uM incubated for 24 hrs by Western blot analysis; format: functional, cell-based
[15] = target: Calcium/calmodulin-dependent protein kinase type IV (Homo sapiens) (UniProt Q16566); assay: Inhibition of recombinant human full length GST-tagged CAMK4 expressed in Escherichia coli expression system assessed as enzyme residual activity at 0.4 uM using fluorophore-labeled serine/threonine-13 peptide as substrate incubated for 60 mins by Z'-LYTE assay relative to control
CCRF-CEM [16] = assay: Induction of apoptosis in human CCRF-CEM cells assessed as downregulation of PARP at 1 to 5 uM incubated for 24 hrs by Western blot analysis; format: functional, cell-based
MOLT-4 [17] = assay: Induction of apoptosis in human MOLT4 cells assessed as downregulation of PARP at 1 to 20 uM incubated for 24 hrs by Western blot analysis; format: functional, cell-based
Jurkat [18] = assay: Induction of apoptosis in human Jurkat cells assessed as downregulation of caspase3 at 1 to 20 uM incubated for 24 hrs by Western blot analysis; format: functional, cell-based
[19] = target: T2, Tyrosine-protein kinase ITK/TSK (Homo sapiens, UniProt Q08881); assay: Inhibition of recombinant human N-terminal His6-tagged ITK (352 to 617 residues) expressed in baculovirus infected Sf21 insect cells using STK substrate by HTRF assay
T2 sequence (Q08881 whole entry): T1 sequence (whole entry)

[20] = target: Tyrosine-protein kinase ZAP-70 (Homo sapiens) (UniProt P43403); assay: Inhibition of recombinant full length human His-tagged ZAP70 cytoplasmic domain expressed in baculovirus expression system assessed as enzyme residual activity at 0.4 uM using fluorophore-labeled tyrosine-07 peptide as substrate incubated for 60 mins by Z'-LYTE assay relative to control
Jurkat [21] = assay: Induction of apoptosis in human Jurkat cells assessed as downregulation of PARP at 1 to 20 uM incubated for 24 hrs by Western blot analysis; format: functional, cell-based

Receptor-type tyrosine-protein kinase FLT3 (Homo sapiens), sequence (P36888 whole entry, the tested form may be a part): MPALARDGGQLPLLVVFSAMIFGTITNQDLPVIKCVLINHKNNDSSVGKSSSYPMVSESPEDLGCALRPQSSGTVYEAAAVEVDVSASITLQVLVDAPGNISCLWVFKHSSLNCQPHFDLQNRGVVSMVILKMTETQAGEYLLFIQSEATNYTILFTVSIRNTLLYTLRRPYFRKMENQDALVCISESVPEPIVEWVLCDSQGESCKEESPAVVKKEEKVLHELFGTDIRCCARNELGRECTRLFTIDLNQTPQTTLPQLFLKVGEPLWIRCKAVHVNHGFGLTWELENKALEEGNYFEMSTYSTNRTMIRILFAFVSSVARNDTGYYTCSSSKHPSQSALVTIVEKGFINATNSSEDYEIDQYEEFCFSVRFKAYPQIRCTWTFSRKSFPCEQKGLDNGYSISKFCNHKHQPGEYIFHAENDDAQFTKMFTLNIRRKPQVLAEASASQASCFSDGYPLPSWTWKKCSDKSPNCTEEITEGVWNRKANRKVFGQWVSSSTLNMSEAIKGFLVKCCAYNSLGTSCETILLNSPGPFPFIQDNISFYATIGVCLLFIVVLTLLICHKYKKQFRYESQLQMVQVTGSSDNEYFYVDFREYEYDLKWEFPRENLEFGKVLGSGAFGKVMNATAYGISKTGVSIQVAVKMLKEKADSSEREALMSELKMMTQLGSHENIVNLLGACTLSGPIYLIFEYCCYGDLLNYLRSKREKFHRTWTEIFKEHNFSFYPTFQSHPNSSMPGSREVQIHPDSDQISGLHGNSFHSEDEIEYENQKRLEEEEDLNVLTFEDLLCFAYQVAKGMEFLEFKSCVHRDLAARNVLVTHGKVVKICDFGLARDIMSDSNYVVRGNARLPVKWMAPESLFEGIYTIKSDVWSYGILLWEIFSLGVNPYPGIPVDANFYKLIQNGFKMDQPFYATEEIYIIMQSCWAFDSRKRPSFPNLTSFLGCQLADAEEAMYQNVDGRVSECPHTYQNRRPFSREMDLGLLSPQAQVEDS
Tyrosine-protein kinase Blk, sequence (P51451 2-505 limits assumed): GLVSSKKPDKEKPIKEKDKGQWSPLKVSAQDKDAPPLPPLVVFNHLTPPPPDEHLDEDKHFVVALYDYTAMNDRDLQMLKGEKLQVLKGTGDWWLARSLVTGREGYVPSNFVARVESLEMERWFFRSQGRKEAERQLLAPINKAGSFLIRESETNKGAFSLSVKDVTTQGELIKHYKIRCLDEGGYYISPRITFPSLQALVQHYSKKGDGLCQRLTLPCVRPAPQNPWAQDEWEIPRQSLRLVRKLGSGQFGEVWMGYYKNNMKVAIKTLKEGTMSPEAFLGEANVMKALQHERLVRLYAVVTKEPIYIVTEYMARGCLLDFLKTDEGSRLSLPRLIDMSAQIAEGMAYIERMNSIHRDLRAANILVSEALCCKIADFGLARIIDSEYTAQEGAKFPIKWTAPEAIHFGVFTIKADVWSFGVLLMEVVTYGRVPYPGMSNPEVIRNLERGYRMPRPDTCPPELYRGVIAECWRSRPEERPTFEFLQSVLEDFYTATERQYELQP
Tyrosine-protein kinase Fyn (Homo sapiens), sequence (P06241 2-537 limits assumed): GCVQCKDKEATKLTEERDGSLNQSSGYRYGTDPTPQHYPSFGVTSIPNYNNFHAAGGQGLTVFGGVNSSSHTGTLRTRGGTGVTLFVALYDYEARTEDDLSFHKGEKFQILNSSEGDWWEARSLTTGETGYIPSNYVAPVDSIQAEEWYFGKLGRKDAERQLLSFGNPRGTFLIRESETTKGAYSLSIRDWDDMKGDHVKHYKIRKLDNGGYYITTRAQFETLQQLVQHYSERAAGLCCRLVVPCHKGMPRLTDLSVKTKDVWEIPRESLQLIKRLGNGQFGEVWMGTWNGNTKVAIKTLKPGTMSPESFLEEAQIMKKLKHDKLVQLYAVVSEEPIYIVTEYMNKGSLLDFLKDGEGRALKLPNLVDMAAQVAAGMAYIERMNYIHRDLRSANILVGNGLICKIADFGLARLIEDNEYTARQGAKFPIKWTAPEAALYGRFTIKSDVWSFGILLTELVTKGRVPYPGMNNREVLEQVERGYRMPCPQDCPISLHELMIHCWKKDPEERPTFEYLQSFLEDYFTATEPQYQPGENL
Calcium/calmodulin-dependent protein kinase type IV (Homo sapiens), sequence (Q16566 whole entry): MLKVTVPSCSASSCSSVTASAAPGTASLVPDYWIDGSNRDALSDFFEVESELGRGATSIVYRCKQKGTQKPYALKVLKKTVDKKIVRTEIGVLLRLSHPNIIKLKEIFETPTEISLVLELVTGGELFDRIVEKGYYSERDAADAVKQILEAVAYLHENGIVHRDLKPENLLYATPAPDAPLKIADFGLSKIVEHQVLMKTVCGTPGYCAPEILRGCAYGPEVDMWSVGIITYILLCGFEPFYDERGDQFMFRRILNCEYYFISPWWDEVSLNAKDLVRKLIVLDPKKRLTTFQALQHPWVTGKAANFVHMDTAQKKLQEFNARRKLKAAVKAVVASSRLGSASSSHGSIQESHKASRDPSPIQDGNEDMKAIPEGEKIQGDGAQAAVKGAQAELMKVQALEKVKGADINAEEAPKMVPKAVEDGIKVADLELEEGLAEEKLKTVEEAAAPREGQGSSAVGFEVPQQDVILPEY
Insulin-like growth factor 1 receptor (Homo sapiens), sequence (P08069 31-736 limits assumed): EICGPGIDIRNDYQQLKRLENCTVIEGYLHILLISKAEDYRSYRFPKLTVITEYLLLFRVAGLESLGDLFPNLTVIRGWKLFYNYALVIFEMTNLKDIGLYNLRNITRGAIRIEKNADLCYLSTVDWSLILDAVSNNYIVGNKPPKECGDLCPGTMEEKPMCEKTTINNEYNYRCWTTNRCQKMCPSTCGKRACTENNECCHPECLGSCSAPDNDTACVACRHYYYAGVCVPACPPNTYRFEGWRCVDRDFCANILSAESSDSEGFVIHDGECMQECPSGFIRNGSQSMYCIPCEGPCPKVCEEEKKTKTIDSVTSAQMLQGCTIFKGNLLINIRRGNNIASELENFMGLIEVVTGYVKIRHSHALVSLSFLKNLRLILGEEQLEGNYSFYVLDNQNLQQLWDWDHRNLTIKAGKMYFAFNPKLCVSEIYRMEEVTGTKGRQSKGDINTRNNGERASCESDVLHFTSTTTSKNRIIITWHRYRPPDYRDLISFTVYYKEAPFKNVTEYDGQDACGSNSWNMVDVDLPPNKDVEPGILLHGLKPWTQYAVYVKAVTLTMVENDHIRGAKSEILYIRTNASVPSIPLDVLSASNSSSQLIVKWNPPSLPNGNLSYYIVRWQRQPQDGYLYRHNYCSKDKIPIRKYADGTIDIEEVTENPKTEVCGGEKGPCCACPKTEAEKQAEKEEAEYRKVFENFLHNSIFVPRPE
Insulin-like growth factor 1 receptor (Homo sapiens), sequence (P08069 741-1367 limits assumed): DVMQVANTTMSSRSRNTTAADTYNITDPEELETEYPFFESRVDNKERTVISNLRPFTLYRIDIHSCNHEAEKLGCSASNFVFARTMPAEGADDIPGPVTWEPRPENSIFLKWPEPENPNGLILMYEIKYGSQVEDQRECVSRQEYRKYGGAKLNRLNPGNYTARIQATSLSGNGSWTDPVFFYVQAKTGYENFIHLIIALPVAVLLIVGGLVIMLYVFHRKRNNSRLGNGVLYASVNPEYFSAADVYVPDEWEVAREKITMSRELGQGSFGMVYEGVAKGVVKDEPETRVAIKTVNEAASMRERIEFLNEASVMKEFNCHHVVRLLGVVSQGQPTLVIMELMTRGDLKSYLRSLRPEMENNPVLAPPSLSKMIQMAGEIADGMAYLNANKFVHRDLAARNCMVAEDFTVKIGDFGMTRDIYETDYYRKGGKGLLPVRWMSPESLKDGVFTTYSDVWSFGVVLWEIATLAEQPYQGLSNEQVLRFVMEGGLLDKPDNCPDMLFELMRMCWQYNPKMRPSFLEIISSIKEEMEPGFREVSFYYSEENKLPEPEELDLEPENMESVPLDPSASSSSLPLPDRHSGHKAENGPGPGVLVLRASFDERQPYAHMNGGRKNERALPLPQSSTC
Mitogen-activated protein kinase 8 (Homo sapiens), sequence (P45983 whole entry): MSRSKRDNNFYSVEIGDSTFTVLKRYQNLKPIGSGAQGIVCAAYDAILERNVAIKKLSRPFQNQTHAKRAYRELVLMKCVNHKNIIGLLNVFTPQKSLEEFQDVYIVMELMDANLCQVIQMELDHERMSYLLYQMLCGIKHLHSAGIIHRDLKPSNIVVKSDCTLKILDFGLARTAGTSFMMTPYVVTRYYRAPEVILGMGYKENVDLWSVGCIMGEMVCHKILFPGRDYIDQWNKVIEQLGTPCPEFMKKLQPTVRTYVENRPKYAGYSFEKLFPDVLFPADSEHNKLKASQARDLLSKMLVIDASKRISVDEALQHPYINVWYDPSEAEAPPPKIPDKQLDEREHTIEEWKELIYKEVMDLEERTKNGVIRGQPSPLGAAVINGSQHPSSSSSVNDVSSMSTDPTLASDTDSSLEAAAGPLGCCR
Glycogen synthase kinase-3 alpha (Homo sapiens), sequence (P49840 2-483 limits assumed): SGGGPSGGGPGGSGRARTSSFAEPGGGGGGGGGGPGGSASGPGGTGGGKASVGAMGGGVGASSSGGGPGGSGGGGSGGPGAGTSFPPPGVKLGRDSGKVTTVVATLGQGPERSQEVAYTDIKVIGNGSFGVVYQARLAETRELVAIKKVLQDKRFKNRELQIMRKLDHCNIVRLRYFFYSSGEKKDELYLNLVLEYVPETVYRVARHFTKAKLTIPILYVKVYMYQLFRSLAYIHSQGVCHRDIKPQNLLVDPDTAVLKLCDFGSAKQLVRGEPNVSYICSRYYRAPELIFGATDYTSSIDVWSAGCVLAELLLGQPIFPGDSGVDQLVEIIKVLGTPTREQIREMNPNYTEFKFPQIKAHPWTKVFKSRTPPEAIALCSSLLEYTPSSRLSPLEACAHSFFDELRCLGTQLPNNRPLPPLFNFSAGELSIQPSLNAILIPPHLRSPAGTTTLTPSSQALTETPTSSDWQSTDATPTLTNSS

C=CC(=O)N1CCC(Oc2nc(Nc3ccc(N4CCOCC4)cc3)nc3[nH]cc(-c4cncc(NC)n4)c23)CC1
GI50 (H9): 232 nM
Activity (CCRF-CEM [1]): Active
Activity [2]: 2.3%
Activity [3]: 25%
Activity (CCRF-CEM [4]): Active
Activity (Jurkat [5]): Active
Activity [6]: 84%
inhibition [7]: Active
Activity (MOLT-4 [8]): Active
Activity [9]: 1%
Activity [10]: 29.3%
Activity [11]: 62%
Activity [12]: 21%
Activity [13]: 9%
Activity (MOLT-4 [14]): Active
Activity [15]: 107%
Activity (CCRF-CEM [16]): Active
Activity (MOLT-4 [17]): Active
Activity (Jurkat [18]): Active
IC50 [19]: 3.7 nM
Ki [19]: 6.3 nM
Activity [20]: 95%
Activity (Jurkat [21]): Active
